Assay results from paper PMC5399792 (Nucleic Acids Research, 2017).
Values joined by “and” are separate entries in the source; they are usually repeats but may differ in a detail not shown here. Equal entries are not always repeated. Where two headings read alike, the source gives them in different places.

Molecular target: influenza B polymerase bound to a c/v hybrid promoter (Influenza B virus, UniProt Q5V8Y6)
Test: biochemical
Design: species or system influenza B/Memphis/13/03
[1] = 0.025 mM NTPs, capped RNA primed, T ∼ 21°C, t = 10 min, read-out: IC50 (mM), c/v hybrid promoter
[2] = 0.25 mM NTPs, capped RNA primed, T ∼ 21°C, t = 5 min, read-out: IC50 (mM), c/v hybrid promoter

Row | Compound | IC50 [1] [mM] | IC50 [2] [mM] | IC50 (IC50 (mM), c/v hybrid promoter)
1 | Nc1nc2c(ncn2[C@@H]2O[C@H](COP(=O)(O)OP(=O)(O)OP(=O)(O)O)[C@@H](O)[C@H]2F)c(=O)[nH]1 [2'F-2'dGTP] | 0.04 | 0.34 | –
2 | Nc1ncnc2c1ncn2[C@@H]1O[C@H](COP(=O)(O)OP(=O)(O)OP(=O)(O)O)[C@@H](O)[C@H]1F [2'F-2'dATP] | 0.04 | 0.33 | –
3 | Nc1ccn([C@@H]2O[C@H](COP(=O)(O)OP(=O)(O)OP(=O)(O)O)[C@@H](O)[C@H]2F)c(=O)n1 [2'F-2'dCTP] | – | – | 0.45 mM and 1.9 mM
